For experiment [1], the target named is T1, CRF1R receptor (Homo sapiens, UniProt P34998).
T1 construct: host or cells: CHO-K1 clone 2
T1 sequence (P34998 24-415): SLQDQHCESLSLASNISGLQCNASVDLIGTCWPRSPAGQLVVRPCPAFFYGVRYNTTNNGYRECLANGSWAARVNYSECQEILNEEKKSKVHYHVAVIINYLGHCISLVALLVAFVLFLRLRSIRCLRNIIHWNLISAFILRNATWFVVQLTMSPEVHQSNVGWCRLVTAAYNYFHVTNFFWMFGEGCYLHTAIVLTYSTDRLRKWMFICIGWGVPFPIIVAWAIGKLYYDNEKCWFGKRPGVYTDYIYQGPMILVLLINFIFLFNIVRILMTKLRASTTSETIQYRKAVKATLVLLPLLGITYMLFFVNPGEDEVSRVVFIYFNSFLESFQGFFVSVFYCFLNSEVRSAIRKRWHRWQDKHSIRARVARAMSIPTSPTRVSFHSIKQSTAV
Briefly: cAMP activity at anti-target CRF1R, CHO-K1 cell line clone 2 (Example 19.10). The format is cell-based. The note with it: CRF1R CHO-K1 clone 2; for EC50: 0% HSA, read-out: EC50 [nM] 0% HSA; for Emax: 100% = Sauvagine at 100 nM. In short, it runs like this:
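The cAMP read-out used the same protocol as the previous assay, except that Sauvagine at 100 nM set the 100% activation control. Cells were CHO-K1 clone 2 overexpressing CRF1R, cultured in F12 medium with 10% FBS and G418 and stored frozen until use.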

The target of experiment [2] is T2, human CRF2α receptor (Homo sapiens, UniProt Q13324).
T2 construct: expressed in transfected cells; host or cells: TeloHEAC
T2 sequence (Q13324 1-411): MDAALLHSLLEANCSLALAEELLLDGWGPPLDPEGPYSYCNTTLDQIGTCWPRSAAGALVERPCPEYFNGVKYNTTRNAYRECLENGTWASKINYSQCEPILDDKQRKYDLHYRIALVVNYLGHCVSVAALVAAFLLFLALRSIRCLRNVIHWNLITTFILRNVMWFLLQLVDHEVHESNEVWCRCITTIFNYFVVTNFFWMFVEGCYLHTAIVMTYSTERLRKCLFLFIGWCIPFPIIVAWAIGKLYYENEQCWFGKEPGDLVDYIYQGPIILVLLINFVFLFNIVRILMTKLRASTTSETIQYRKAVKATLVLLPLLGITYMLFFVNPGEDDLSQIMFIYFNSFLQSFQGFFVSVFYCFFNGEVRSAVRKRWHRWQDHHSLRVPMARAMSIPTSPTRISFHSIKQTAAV
Description: cAMP agonism at human CRF2 α receptor in TeloHEAC cells (Example 7). The format is cell-based. The note with it: cAMP HTRF, TeloHEAC cells stably expressing human CRF2 α. In short, it runs like this:
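HTRF ratio 665/620 nm, read 1 h after lysis reagents, reports cAMP. Cells: thawed stocks, 2000/well, 30 min RT with compound in HBSS, 20 mM HEPES, 0 or 0.1% HSA, 2 mM IBMX. Activity normalised to UCN2 1000 nM = 100%; EC50 from half-maximal activation.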
For orientation: TR-FRET usually uses a lanthanide donor and a delayed reading to cut background.

The mark [3] stands for this setting: 0% HSA, read-out: EC50 [nM], 0% HSA.
Setting [4] is: 0.1% HSA, read-out: EC50 [nM], 0.1% HSA.

Structures are written as SMILES. Read-outs that look alike come from different tables or passages of the source. Starred links: 1 amine or outer side, 2 acyl side, 3 side chain; linkers in the order of their positions; H or OH if unused. Non-standard residues stand in square brackets, D forms with d. Residues, ends and D or L forms follow the SMILES beside them. Groups on a side chain read outwards from the residue. *: point of attachment. C18 diacid = O=C(O)CCCCCCCCCCCCCCCCC(=O)*; γGlu = O=C(O)[C@H](CCC(=O)[*:2])N[*:1]; AEEA = NCCOCCOCC(=O)O; Aib = CC(C)(N)C(=O)O Where only a bound is given, the exact number is not on record here.

In the case of `CC[C@H](C)[C@H](N)C(=O)N[C@H](C(=O)N[C@@H](CC(C)C)C(=O)N[C@@H](CO)C(=O)N[C@@H](CC(C)C)C(=O)N[C@@H](CC(=O)O)C(=O)N[C@H](C(=O)N1CCC[C@H]1C(=O)N[C@H](C(=O)NCC(=O)N[C@@H](CC(C)C)C(=O)N[C@@H](CCCCNC(=O)COCCOCCNC(=O)COCCOCCNC(=O)CC[C@H](NC(=O)CCCCCCCCCCCCCCCCC(=O)O)C(=O)O)C(=O)N[C@@H](CCC(N)=O)C(=O)N[C@H](C(=O)N[C@@H](CC(C)C)C(=O)N[C@@H](CC(C)C)C(=O)N[C@@H](CCCCN)C(=O)N[C@@H](CCC(N)=O)C(=O)N[C@@H](CCC(=O)O)C(=O)N[C@@H](CCCNC(=N)N)C(=O)N[C@@H](CCC(N)=O)C(=O)N[C@@H](CCCCN)C(=O)N[C@@H](CCCCN)C(=O)NC(C)(C)C(=O)N[C@@H](CCCNC(=N)N)C(=O)N[C@@H](CCC(=O)O)C(=O)N[C@@H](CCC(N)=O)C(=O)N[C@@H](C)C(=O)N[C@@H](CCC(=O)O)C(=O)N[C@H](C(=O)N[C@@H](CC(N)=O)C(=O)N[C@@H](CCCCN)C(=O)N[C@@H](CCCNC(=N)N)C(=O)N[C@H](C(=O)N[C@@H](CC(C)C)C(=O)N[C@@H](CCC(=O)O)C(=O)N[C@@H](CCCNC(=N)N)C(=O)N[C@H](C(N)=O)C(C)C)[C@@H](C)CC)[C@@H](C)O)[C@@H](C)CC)[C@@H](C)CC)C(C)C)C(C)C` [compound 148] (H-IVLSLDVPIGLK([AEEA-AEEA-γGlu-C18 diacid])QILLKQERQKK[Aib]REQAETNKRILERV-NH2; N-terminus assumed), the EC50 – broadly, the midpoint of the concentration-response curve – in experiment [1] was over 100 nM; in experiment [2] (setting [3]), 0.29 nM; in experiment [2] (setting [4]) it was 14.3 nM. For the same compound, the maximal effect (Emax) (commonly the size of the effect at its maximum, as opposed to the concentration needed) in experiment [1] is 2.6%.
For `CC[C@H](C)[C@H](N)C(=O)N[C@H](C(=O)N[C@@H](CC(C)C)C(=O)N[C@@H](CO)C(=O)N[C@@H](CC(C)C)C(=O)N[C@@H](CC(=O)O)C(=O)N[C@@H](C(=O)N1CCC[C@H]1C(=O)N[C@H](C(=O)N[C@@H](CCCCN)C(=O)N[C@@H](CC(C)C)C(=O)N[C@@H](CCCCNC(=O)COCCOCCNC(=O)COCCOCCNC(=O)CC[C@H](NC(=O)CCCCCCCCCCCCCCCCC(=O)O)C(=O)O)C(=O)N[C@@H](CCC(N)=O)C(=O)N[C@H](C(=O)N[C@@H](CC(C)C)C(=O)N[C@@H](CC(C)C)C(=O)N[C@@H](CCCCN)C(=O)N[C@@H](CCC(N)=O)C(=O)N[C@@H](CCC(=O)O)C(=O)N[C@@H](CCCNC(=N)N)C(=O)N[C@@H](CCC(N)=O)C(=O)N[C@@H](CCCCN)C(=O)N[C@@H](CCCCN)C(=O)NC(C)(C)C(=O)N[C@@H](CCCNC(=N)N)C(=O)N[C@@H](CCC(=O)O)C(=O)N[C@@H](CCC(N)=O)C(=O)N[C@@H](C)C(=O)N[C@@H](CCC(=O)O)C(=O)N[C@H](C(=O)N[C@@H](CC(N)=O)C(=O)N[C@@H](CCCCN)C(=O)N[C@@H](CCCNC(=N)N)C(=O)N[C@H](C(=O)N[C@@H](CC(C)C)C(=O)N[C@@H](CCC(=O)O)C(=O)N[C@@H](CCCNC(=N)N)C(=O)N[C@H](C(N)=O)C(C)C)[C@@H](C)CC)[C@@H](C)O)[C@@H](C)CC)[C@@H](C)CC)C(C)C)C(C)C` [compound 149] (H-IVLSLD[dV]PIKLK([AEEA-AEEA-γGlu-C18 diacid])QILLKQERQKK[Aib]REQAETNKRILERV-NH2; N-terminus assumed), in that order: over 100 nM, 0.06 nM, 2.54 nM and 6.6%.
With `CC[C@H](C)[C@H](N)C(=O)N[C@H](C(=O)N[C@@H](CC(C)C)C(=O)N[C@@H](CO)C(=O)N[C@@H](CC(C)C)C(=O)N[C@@H](CC(=O)O)C(=O)N[C@@H](C(=O)N1CCC[C@H]1C(=O)N[C@H](C(=O)NCC(=O)N[C@@H](CC(C)C)C(=O)N[C@@H](CCCCNC(=O)COCCOCCNC(=O)COCCOCCNC(=O)CC[C@H](NC(=O)CCCCCCCCCCCCCCCCC(=O)O)C(=O)O)C(=O)N[C@@H](CCC(N)=O)C(=O)N[C@H](C(=O)N[C@@H](CC(C)C)C(=O)N[C@@H](CC(C)C)C(=O)N[C@@H](CCCCN)C(=O)N[C@@H](CCC(N)=O)C(=O)N[C@@H](CCC(=O)O)C(=O)N[C@@H](CCCNC(=N)N)C(=O)N[C@@H](CCC(N)=O)C(=O)N[C@@H](CCCCN)C(=O)N[C@@H](CCCCN)C(=O)NC(C)(C)C(=O)N[C@@H](CCCNC(=N)N)C(=O)N[C@@H](CCC(N)=O)C(=O)N[C@@H](CCC(N)=O)C(=O)N[C@@H](C)C(=O)N[C@@H](CCC(=O)O)C(=O)N[C@H](C(=O)N[C@@H](CC(N)=O)C(=O)N[C@@H](CCCCN)C(=O)N[C@@H](CCCNC(=N)N)C(=O)N[C@H](C(=O)N[C@@H](CC(C)C)C(=O)N[C@@H](CCC(=O)O)C(=O)N[C@@H](CCCNC(=N)N)C(=O)N[C@H](C(N)=O)C(C)C)[C@@H](C)CC)[C@@H](C)O)[C@@H](C)CC)[C@@H](C)CC)C(C)C)C(C)C` [compound 150] (H-IVLSLD[dV]PIGLK([AEEA-AEEA-γGlu-C18 diacid])QILLKQERQKK[Aib]RQQAETNKRILERV-NH2; N-terminus assumed), the EC50 in experiment [1] was over 100 nM; in experiment [2] (setting [3]), 0.07 nM; in experiment [2] (setting [4]), 3.99 nM. Besides, the Emax in experiment [1] stood at 7.2%.
Regarding `CC[C@H](C)[C@H](N)C(=O)N[C@H](C(=O)N[C@@H](CC(C)C)C(=O)N[C@@H](CO)C(=O)N[C@@H](CC(C)C)C(=O)N[C@@H](CC(=O)O)C(=O)N[C@H](C(=O)N1CCC[C@H]1C(=O)N[C@H](C(=O)N[C@@H](CCCCN)C(=O)N[C@@H](CC(C)C)C(=O)N[C@@H](CCCCNC(=O)COCCOCCNC(=O)COCCOCCNC(=O)CC[C@H](NC(=O)CCCCCCCCCCCCCCCCC(=O)O)C(=O)O)C(=O)N[C@@H](CCC(N)=O)C(=O)N[C@H](C(=O)N[C@@H](CC(C)C)C(=O)N[C@@H](CC(C)C)C(=O)N[C@@H](CCCCN)C(=O)N[C@@H](CCC(N)=O)C(=O)N[C@@H](CCC(=O)O)C(=O)N[C@@H](CCCNC(=N)N)C(=O)N[C@@H](CCC(N)=O)C(=O)N[C@@H](CCCCN)C(=O)N[C@@H](CCCCN)C(=O)NC(C)(C)C(=O)N[C@@H](CCCNC(=N)N)C(=O)N[C@@H](CCC(=O)O)C(=O)N[C@@H](CCC(N)=O)C(=O)N[C@@H](C)C(=O)N[C@@H](CCC(=O)O)C(=O)N[C@H](C(=O)N[C@@H](CC(N)=O)C(=O)N[C@@H](CCCCN)C(=O)N[C@@H](CCCNC(=N)N)C(=O)N[C@H](C(=O)N[C@@H](CC(C)C)C(=O)N[C@@H](CCC(=O)O)C(=O)N[C@@H](CCCNC(=N)N)C(=O)N[C@H](C(N)=O)C(C)C)[C@@H](C)CC)[C@@H](C)O)[C@@H](C)CC)[C@@H](C)CC)C(C)C)C(C)C` [compound 152] (H-IVLSLDVPIKLK([AEEA-AEEA-γGlu-C18 diacid])QILLKQERQKK[Aib]REQAETNKRILERV-NH2; N-terminus assumed), the EC50 is over 100 nM in experiment [1], 0.09 nM in experiment [2] (setting [3]) and 4.94 nM in experiment [2] (setting [4]). Further, the Emax in experiment [1] amounted to 4.9%.

(Values after patent US12679878B2, “CRF2 receptor agonists and their use in therapy” (SANOFI, priority 2020, dated 2026).)
